Our source for the IC50 values is US5430062A, “Stilbene derivatives as anticancer agents” (priority 1993, dated 1995).

Read-outs that look alike come from different tables or passages of the source.

One experiment has as its system MLM melanoma. In words: MTT cytotoxicity assay, MLM. Background: Tetrazolium dyes change colour on reduction, which living cells bring about.
The test system of experiment [1] is HT-29 colon adenocarcinoma. Put plainly: MTT cytotoxicity assay, HT-29. The note with it: Homo sapiens, HT-29, […].
The next experiment deals with A-549 lung carcinoma. Put plainly: MTT cytotoxicity assay, A-549. To be noted: Homo sapiens, A549, […].
For the next experiment, the system named is SKMEL-5 melanoma. Put plainly: MTT cytotoxicity assay, SKMEL-5. The note with it: Homo sapiens, SK-MEL-5, […], read-out: Cytotoxicity ED50, SKMEL-5.
The subject of another experiment is MCF-7 breast carcinoma. Put plainly: MTT cytotoxicity assay, MCF-7. To be noted: Homo sapiens, MCF7, […].
[2] abbreviates: […], read-out: Cytotoxicity ED50, MLM.
The mark [3] stands for this setting: read-out: Cytotoxicity ED50, HT-29.
[4] abbreviates: read-out: Cytotoxicity ED50, A-549.
The mark [5] stands for this setting: read-out: Cytotoxicity ED50, MCF-7.

`COc1cc(/C=C/c2ccccc2)cc(OC)c1OC` [6f]: the IC50 (with MLM melanoma (setting [2]); in experiment [1] (setting [3]); in the experiment on A-549 lung carcinoma (setting [4]); in the experiment on SKMEL-5 melanoma; with MCF-7 breast carcinoma (setting [5])) was over 25 µM throughout.
Take “(E)-1-[4-(Benzyloxy)-3,5-(dimethoxy)phenyl]-2-(4-methoxyphenyl)ethene [16j]”: in the experiment on MLM melanoma (read-out: Cytotoxicity ED50, MLM, MLM, MTT, six days, 8640 min), the IC50 was over 25 µM.
Turning to `COc1cc(NC(=O)c2cc(OC)c(OC)c(OC)c2)cc(OC)c1OC` [11f], the IC50 (in the experiment with MLM melanoma (setting [2]); in experiment [1] (setting [3]); with A-549 lung carcinoma (setting [4]); in the experiment with SKMEL-5 melanoma; with MCF-7 breast carcinoma (setting [5])) was over 25 µM throughout.
On to `COc1ccc(/C=C/c2ccccc2)c(OC)c1OC` [6r, (E)-1-Phenyl-2-(2,3,4-trimethoxyphenyl)ethene], for which the IC50 (with MLM melanoma (setting [2]); in experiment [1] (setting [3]); with A-549 lung carcinoma (setting [4]); with SKMEL-5 melanoma; in the experiment on MCF-7 breast carcinoma (setting [5])) was over 25 µM in each case.
Consider `COc1cc(CCc2ccncc2)cc(OC)c1OC` [8i, 1-(4-Pyridyl)-2-(3,4,5-trimethoxyphenyl)ethane], for which the IC50 (in the experiment with MLM melanoma (setting [2]); in experiment [1] (setting [3]); in the experiment with A-549 lung carcinoma (setting [4]); with SKMEL-5 melanoma; in the experiment with MCF-7 breast carcinoma (setting [5])) was over 25 µM in each case.
With `COc1ccc(C(=O)Nc2cc(OC)c(OC)c(OC)c2)cc1` [11c, 4-Methoxy-N-(3,4,5-trimethoxyphenyl)benzamide], the IC50 (with MLM melanoma (setting [2]); in experiment [1] (setting [3]); in the experiment on A-549 lung carcinoma (setting [4]); in the experiment with SKMEL-5 melanoma; with MCF-7 breast carcinoma (setting [5])) was over 25 µM in each case.
For `COc1cc(CNc2cc(OC)c(OC)c(OC)c2)cc(OC)c1OC` [12f], the IC50 (with MLM melanoma (setting [2]); in experiment [1] (setting [3]); in the experiment on A-549 lung carcinoma (setting [4]); in the experiment on SKMEL-5 melanoma; with MCF-7 breast carcinoma (setting [5])) was over 25 µM in each case.
Turning to `COc1ccccc1CCc1cc(OC)c(OC)c(OC)c1` [8c], the IC50 in the experiment on MLM melanoma (setting [2]) is over 25 µM; in experiment [1] (setting [3]), over 25 µM; in the experiment with A-549 lung carcinoma (setting [4]) it was 13.5 µM; in the experiment on SKMEL-5 melanoma it was 20 µM; in the experiment with MCF-7 breast carcinoma (setting [5]), 11.8 µM.
Consider `COc1cc(/C=C/c2ccc([N+](=O)[O-])cc2)cc(OC)c1OC` [compound 6l, (E)-1-(4-Nitrophenyl)-2-(3,4,5-trimethoxyphenyl)ethene], for which the IC50 (in the experiment with MLM melanoma (setting [2]); in experiment [1] (setting [3]); in the experiment with A-549 lung carcinoma (setting [4]); in the experiment on SKMEL-5 melanoma; with MCF-7 breast carcinoma (setting [5])) was over 25 µM in each case.
In the case of `COc1cccc(/C=C/c2cc(OC)c(OC)c(OC)c2)c1` [6b], the IC50 is over 25 µM with MLM melanoma ([…], read-out: Cytotoxicity ED50, MLM, MLM, MTT, six days); 7.3 µM in experiment [1] (read-out: Cytotoxicity ED50, HT-29, HT-29, MTT, six days); 9.8 µM in the experiment with A-549 lung carcinoma (read-out: Cytotoxicity ED50, A-549, A-549, MTT, six days); 10.5 µM in the experiment on SKMEL-5 melanoma; 12.2 µM in the experiment with MCF-7 breast carcinoma (read-out: Cytotoxicity ED50, MCF-7, MCF-7, MTT, six days).
For the molecule `COc1cc(/C=C/c2ccc(C)cc2)cc(OC)c1OC` [16d, (E)-(4-Methylphenyl)-2-(3,4,5-trimethoxyphenyl)ethene], the IC50 worked out at 6.3 µM in the experiment with MLM melanoma (setting [2]); 0.9 µM in experiment [1] (setting [3]); 1.1 µM with A-549 lung carcinoma (setting [4]); 0.8 µM with SKMEL-5 melanoma; 1.9 µM in the experiment with MCF-7 breast carcinoma (setting [5]).
For `COc1ccc(CCc2ccccc2)c(OC)c1OC` [8r] the same measures were over 25 µM, over 25 µM, over 25 µM, over 25 µM and over 25 µM.
For the molecule `COc1ccc(CCc2ccccc2)cc1OC` [8q], the IC50 (in the experiment with MLM melanoma (setting [2]); in experiment [1] (setting [3]); in the experiment with A-549 lung carcinoma (setting [4]); with SKMEL-5 melanoma; with MCF-7 breast carcinoma (setting [5])) was over 25 µM in each case.
As to `COc1cc(CCc2cccnc2)cc(OC)c1OC` [8j, 1-(3-Pyridyl)-2-(3,4,5-trimethoxyphenyl)ethane], the IC50 in the experiment with MLM melanoma (setting [2]) was over 25 µM; in experiment [1] (setting [3]) it was over 25 µM; in the experiment with A-549 lung carcinoma (setting [4]) it was 12.2 µM; in the experiment on SKMEL-5 melanoma, over 25 µM; with MCF-7 breast carcinoma (setting [5]), over 25 µM.
Turning to `COc1cc(CCc2cc(OC)c(OC)c(OC)c2)cc(OC)c1OC` [8u], the IC50 (in the experiment on MLM melanoma (setting [2]); in experiment [1] (setting [3]); with A-549 lung carcinoma (setting [4]); with SKMEL-5 melanoma; in the experiment with MCF-7 breast carcinoma (setting [5])) was over 25 µM throughout.
With `COc1cc(/C=C/c2cccnc2)cc(OC)c1OC` [6j, 1-(3-Pyridyl)-2-(3,4,5-trimethoxyphenyl)ethene], the IC50 (with MLM melanoma (setting [2]); in experiment [1] (setting [3]); in the experiment on A-549 lung carcinoma (setting [4]); in the experiment with SKMEL-5 melanoma; with MCF-7 breast carcinoma (setting [5])) was over 25 µM in each case.
As for `COc1cccc(CCc2cc(OC)c(OC)c(OC)c2)c1` [8b], the IC50 with MLM melanoma (setting [2]) was over 25 µM; in experiment [1] (setting [3]) it was 7.6 µM; in the experiment on A-549 lung carcinoma (setting [4]) it was 11.7 µM; with SKMEL-5 melanoma, 9.2 µM; in the experiment on MCF-7 breast carcinoma (setting [5]), 12.4 µM.
For `COc1ccc(/C=C/c2ccccc2)cc1OC` [6q, (E)-1-(3,4-Dimethoxyphenyl)-2-phenylethene] the same measures were over 25 µM, over 25 µM, over 25 µM, over 25 µM and over 25 µM.
The corresponding values for `COc1ccc(C(=O)Nc2cc(OC)cc(OC)c2)cc1` [11e] are over 25 µM, over 25 µM, over 25 µM, over 25 µM and over 25 µM.
For `COc1cc(CCc2ccc(OC)c(OC)c2OC)cc(OC)c1OC` [8t] the same measures were over 25 µM, over 25 µM, over 25 µM, over 25 µM and over 25 µM.
With `COc1cc(CCc2ccc(OC(C)=O)cc2)cc(OC)c1OC` [8p], the IC50 was over 25 µM in the experiment with MLM melanoma (setting [2]); over 25 µM in experiment [1] (setting [3]); 19 µM in the experiment with A-549 lung carcinoma (setting [4]); over 25 µM in the experiment on SKMEL-5 melanoma; over 25 µM in the experiment with MCF-7 breast carcinoma (setting [5]).
Regarding `COc1cc(OC)c(/C=C/c2ccccc2)c(OC)c1` [6x], the IC50 (in the experiment on MLM melanoma (setting [2]); in experiment [1] (setting [3]); with A-549 lung carcinoma (setting [4]); with SKMEL-5 melanoma; with MCF-7 breast carcinoma (setting [5])) was over 25 µM in each case.
As for `COc1cc(/C=C/c2ccc(Br)cc2)cc(OC)c1OC` [6h], the IC50 with MLM melanoma (setting [2]) was found to be 5.13 µM; in experiment [1] (setting [3]), 12.7 µM; in the experiment with A-549 lung carcinoma (setting [4]), 6.47 µM; in the experiment with SKMEL-5 melanoma it was 6.53 µM; in the experiment with MCF-7 breast carcinoma (setting [5]), 9.14 µM.
For `COc1cc(/C=C/c2ccc(OC)c(OC)c2OC)cc(OC)c1OC` [6t] the same measures were 23.9 µM, 10.3 µM, 12.5 µM, 10.6 µM and 14.7 µM.
Turning to `COc1ccc(CNc2cc(OC)c(OC)c(OC)c2)cc1OC` [12b], the IC50 (with MLM melanoma (setting [2]); in experiment [1] (setting [3]); with A-549 lung carcinoma (setting [4]); in the experiment on SKMEL-5 melanoma; in the experiment on MCF-7 breast carcinoma (setting [5])) was over 25 µM in each case.
Turning to `COc1cc(CCc2ccccc2)cc(OC)c1OC` [8f], the IC50 (in the experiment on MLM melanoma (setting [2]); in experiment [1] (setting [3]); in the experiment on A-549 lung carcinoma (setting [4]); in the experiment on SKMEL-5 melanoma; with MCF-7 breast carcinoma (setting [5])) was over 25 µM throughout.
As for `COc1cc(/C=C/c2ccc(Cl)cc2)cc(OC)c1OC` [6g], the IC50 (in the experiment with MLM melanoma (setting [2]); in experiment [1] (setting [3]); with A-549 lung carcinoma (setting [4]); in the experiment on SKMEL-5 melanoma; in the experiment on MCF-7 breast carcinoma (setting [5])) was over 25 µM in each case.
